These results are taken from ChEMBL document CHEMBL5390276, “Discovery of Unusual Sesterterpenoids from Colquhounia coccinea var. mollis and Their Metabolic Implications” (2023).

Assay type in all cases: functional
The test system of assay [1] is RAW264.7. Briefly: Immunosuppressive activity in LPS-treated mouse RAW264.7 cells assessed as inhibition of TNF-alpha level at 40 uM incubated for 24 hrs by ELISA analysis relative to control. Background: An ELISA detects its analyte on a solid surface through an enzyme-linked reagent.
In assay [2] the test system is RAW264.7. The experiment in a line: Immunosuppressive activity in LPS-treated mouse RAW264.7 cells assessed as inhibition of MCP-1 level at 40 uM incubated for 24 hrs by ELISA analysis relative to control.
Assay [3] deals with RAW264.7. Briefly: Immunosuppressive activity in LPS-treated mouse RAW264.7 cells assessed as inhibition of IL-6 level at 40 uM incubated for 24 hrs by ELISA analysis relative to control.
The test system of assay [4] is Jurkat. The experiment in a line: Immunosuppressive activity in PMA and PHA activated human Jurkat cells assessed as inhibition of IL-2 level at 40 uM incubated for 48 hrs by ELISA analysis relative to control.
Assay [5] deals with Jurkat. Briefly: Immunosuppressive activity in PMA and PHA activated human Jurkat cells assessed as inhibition of IL-2 level at 20 uM incubated for 48 hrs by ELISA analysis relative to control.
The subject of assay [6] is RAW264.7. Briefly: Immunosuppressive activity in LPS-treated mouse RAW264.7 cells assessed as inhibition of IL-6 level at 20 uM incubated for 24 hrs by ELISA analysis relative to control.
Assay [7] can be described thus: Immunosuppressive activity in anti-CD3/CD28 stimulated C57BL/6 mouse T cell line assessed as inhibition of IFN-gamma level at 20 uM incubated for 48 hrs by ELISA analysis relative to control. The note with it: C57BL/6, T-cell.
The test system of assay [8] is RAW264.7. Briefly: Immunosuppressive activity in LPS-treated mouse RAW264.7 cells assessed as inhibition of TNF-alpha level at 1 uM incubated for 24 hrs by ELISA analysis relative to control.
In assay [9] the test system is RAW264.7. Briefly: Immunosuppressive activity in LPS-treated mouse RAW264.7 cells assessed as inhibition of MCP-1 level at 1 uM incubated for 24 hrs by ELISA analysis relative to control.
Assay [10] can be described thus: Immunosuppressive activity in anti-CD3/CD28 stimulated C57BL/6 mouse T cell line assessed as inhibition of IFN-gamma level at 0.1 uM incubated for 48 hrs by ELISA analysis relative to control. The note with it: C57BL/6, T-cell.
The subject of assay [11] is Jurkat. Briefly: Immunosuppressive activity in PMA and PHA activated human Jurkat cells assessed as inhibition of IL-2 level at 0.1 uM incubated for 48 hrs by ELISA analysis relative to control.

SMILES strings stand for the structures.

`CC(=O)O[C@H]1C[C@H](C)[C@H]2C(=O)C3=C([C@H](C)[C@H]21)[C@@]1(CC[C@H](C)O1)O[C@]3(C)CC[C@@H]1OC(=O)C=C1C`: the inhibition (as a rule, the share of the control response that was lost under treatment) at 40 µM is 52.5% in assay [1], 32.2% in assay [2], 10.4% in [3] and under 10% in assay [4].
For `CC(=O)O[C@H]1C[C@H](C)[C@H]2C(=O)C3=C(/C(=C/C(C)C)O[C@]3(C)CCc3occc3C)[C@H](C)[C@H]21`, in that order: 24.3%, 31.9%, under 10% and 21.1%.
Consider `Cc1ccoc1CC[C@]1(C)O[C@@]2(CC(C)CCl)O[C@H]3C[C@H](C)[C@H]4C(=O)[C@@H]1[C@]2(O)[C@H](C)[C@H]43` (some centres not stated), for which the values for the inhibition at 20 µM in assay [5], in assay [6] and in assay [7] were 33.1%, 38.6% and 67.4%, respectively.
`Cc1ccoc1CC[C@]1(C)O[C@@]2(CCC(C)Cl)O[C@H]3C[C@H](C)[C@H]4C(=O)[C@@H]1[C@]2(O)[C@H](C)[C@H]43` (some centres not stated): the inhibition at 20 µM amounted to 45.6% in [6] and 61.2% in assay [7].
Turning to `C/C=C/C[C@@H](C)[C@@H](O)[C@H]1C(=O)N[C@@H](CC)C(=O)N(C)CC(=O)N(C)[C@@H](CC(C)C)C(=O)N[C@@H](C(C)C)C(=O)N(C)[C@@H](CC(C)C)C(=O)N[C@@H](C)C(=O)N[C@H](C)C(=O)N(C)[C@@H](CC(C)C)C(=O)N(C)[C@@H](CC(C)C)C(=O)N(C)[C@@H](C(C)C)C(=O)N1C` [CYCLOSPORINE], the values for the inhibition at 1 µM in assay [8] and in [9] were 70.8% and 66%, respectively.
As for `C[C@@H]1C[C@H]2[C@@H]3CCC4=CC(=O)C=C[C@]4(C)[C@@]3(F)[C@@H](O)C[C@]2(C)[C@@]1(O)C(=O)CO` [DEXAMETHASONE], the inhibition at 0.1 µM amounted to 98.3% in assay [10] and 98.9% in assay [11].
